Patent publication US11046725B2, “Galactoside inhibitor of galectins” (GALECTO BIOTECH AB, priority 2018, dated 2021)
Like-named read-outs stand apart in the source and are kept apart here.

Experiments:
[1] = molecular target: galectins; conditions: cited from earlier work
[2] = molecular target: T1, Galectin-1 (Homo sapiens (Human), UniProt P09382); test: Fluorescence anisotropy assay, inhibition of galectin / fluorescein tagged saccharide probe interaction; format: binding
Target sequence in this assay (P09382 whole entry): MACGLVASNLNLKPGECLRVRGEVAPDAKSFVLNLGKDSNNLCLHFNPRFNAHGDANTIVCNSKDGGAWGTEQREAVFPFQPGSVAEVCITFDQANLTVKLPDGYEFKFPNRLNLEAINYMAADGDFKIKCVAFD

[3] = molecular target: Galectin-3 (Homo sapiens (Human), UniProt P17931); test: as above; format: binding
Chain of Galectin-3 (P17931 whole entry): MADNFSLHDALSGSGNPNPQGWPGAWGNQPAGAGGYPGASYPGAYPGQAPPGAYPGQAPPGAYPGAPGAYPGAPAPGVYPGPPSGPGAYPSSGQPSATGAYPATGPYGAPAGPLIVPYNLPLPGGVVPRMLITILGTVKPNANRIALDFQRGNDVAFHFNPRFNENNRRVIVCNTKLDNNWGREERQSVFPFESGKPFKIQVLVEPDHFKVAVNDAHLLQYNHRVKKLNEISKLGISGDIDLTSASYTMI
Experimental: Experimental Procedures (Evaluation of Kd Values)
The affinity of Example 1-33 for galectins were determined by a fluorescence anisotropy assay where the compound was used as an inhibitor of the interaction between galectin and a fluorescein tagged saccharide probe as described Sörme, P., Kahl-Knutsson, B., Huflejt, M., Nilsson, U. J., and Leffler H. (2004) Fluorescence polarization as an analytical tool to evaluate galectin-ligand interactions. Anal. Biochem. 334: 36-47, (Sörme et al., 2004) and Monovalent interactions of Galectin-1 By Salomonsson, Emma; Larumbe, Amaia; Tejler, Johan; Tullberg, Erik; Rydberg, Hanna; Sundin, Anders; Khabut, Areej; Frejd, Torbjorn; Lobsanov, Yuri D.; Rini, James M.; et al, From Biochemistry (2010), 49(44), 9518-9532, (Salomonsson et al., 2010).

[4] = molecular target: T1, Galectin-1; conditions: T. Delaine, 2016; read-out: affinity to Galectin-1; cited from earlier work
Target sequence in this assay (P09382 whole entry, species assumed): as the sequence (P09382 whole entry) above

Row | Compound | Kd ([1]; Leffler, 2001, Leffler et al., 2004, read-out: Kd, all galectins) | Kd [2] | Kd [3] | affinity relative to lactose ([1]; compared with lactose) | Kd [4]
1 | OC[C@H]1O[C@@H](O[C@H]2[C@H](O)[C@@H](O)C(O)O[C@@H]2CO)[C@H](O)[C@@H](O)[C@H]1O (stereo partly shown) [Lactose] | 100 to 1000 µM |  |  |  | 
2 | OC[C@H]1O[C@H](Sc2cc(Cl)c(F)c(Cl)c2)[C@H](O)[C@@H](n2cc(-c3csc(O)n3)nn2)[C@H]1O [Example 18, 3,5-Dichloro-4-fluoro-phenyl 3-deoxy-3-[4-(2-hydroxythiazol-4-yl)-1H-1,2,3-triazol-1-yl]-1-thio-α-D-galactopyranoside] |  | 0.027 µM | 9.7 µM |  | 
3 | N#Cc1ncc(Br)cc1S[C@H]1O[C@H](CO)[C@H](O)[C@H](n2cc(-c3csc(O)n3)nn2)[C@H]1O [Example 14, 5-Bromo-2-cyano-pyridine-3-yl 3-deoxy-3-[4-(2-hydroxythiazol-4-yl)-1H-1,2,3-triazol-1-yl]-1-thio-α-D-galactopyranoside] |  | 0.033 µM | 2.6 µM |  | 
4 | O=C[C@H](O)[C@@H](O)[C@@H](O)[C@H](O)CO [Galactose, D-galactose] |  |  |  | 50-100 times lower | 
5 | OC[C@H]1O[C@H](Sc2ccc(Cl)c(Cl)c2)[C@H](O)[C@@H](n2cc(-c3csc(Cl)n3)nn2)[C@H]1O [Example 7, 3,4-Dichlorophenyl 3-[4-(2-chlorothiazol-4-yl)-1H-1,2,3-triazol-1-yl]-3-deoxy-1-thio-α-D-galactopyranoside] |  | 0.49 µM | 1.4 µM |  | 
6 | OCC1O[C@@H](SC2O[C@H](CO)C(O)C(n3cc(-c4ccsc4)nn3)[C@H]2O)C(O)C(n2cc(-c3ccsc3)nn2)[C@H]1O (stereo partly shown) |  |  |  |  | < 0.01 µM
7 | N#Cc1ncc(S[C@H]2O[C@H](CO)[C@H](O)[C@H](n3cc(-c4nc(Cl)cs4)nn3)[C@H]2O)cc1Cl [Example 3, 5-Chloro-6-cyano-pyridine-3-yl 3-[4-(4-chlorothiazol-2-yl)-1H-1,2,3-triazol-1-yl]-3-deoxy-1-thio-α-D-galactopyranoside] |  | 0.095 µM | 0.42 µM |  | 
8 | Cc1ccc(S[C@H]2O[C@H](CO)[C@H](O)[C@H](n3cc(-c4csc(O)n4)nn3)[C@H]2O)cc1Cl [Example 26, 3-Chloro-4-methylphenyl 3-deoxy-3-[4-(2-hydroxythiazol-4-yl)-1H-1,2,3-triazol-1-yl]-1-thio-α-D-galactopyranoside] |  | 0.082 µM | 6.6 µM |  | 
9 | O=C(O)c1ncc(Cl)cc1S[C@H]1O[C@H](CO)[C@H](O)[C@H](n2cc(-c3csc(O)n3)nn2)[C@H]1O [Example 28, 2-carboxy-5-chloropyridyl 3-deoxy-3-[4-(2-hydroxythiazol-4-yl)-1H-1,2,3-triazol-1-yl]-1-thio-α-D-galactopyranoside] |  | 0.046 µM | 5.7 µM |  | 
10 | N#Cc1ncc(S[C@H]2O[C@H](CO)[C@H](O)[C@H](n3cc(-c4csc(O)n4)nn3)[C@H]2O)cc1Br [Example 15, 5-Bromo-6-cyano-3-pyridyl 3-deoxy-3-[4-(2-hydroxythiazol-4-yl)-1H-1,2,3-triazol-1-yl]-1-thio-α-D-galactopyranoside] |  | 0.019 µM | 2.8 µM |  | 
11 | OC[C@H]1O[C@H](Sc2cnc(C(F)(F)F)c(Br)c2)[C@H](O)[C@@H](n2cc(-c3nc(Br)cs3)nn2)[C@H]1O [Example 2, 5-Bromo-6-trifluoromethyl-pyridine-3-yl 3-[4-(4-bromothiazol-2-yl)-1H-1,2,3-triazol-1-yl]-3-deoxy-1-thio-α-D-galactopyranoside] |  | 0.16 µM | 0.58 µM |  | 
12 | OC[C@H]1O[C@H](Sc2cnc(C(F)(F)F)c(Cl)c2)[C@H](O)[C@@H](n2cc(-c3csc(O)n3)nn2)[C@H]1O [Example 17, 5-Chloro-6-trifluoromethyl-pyridin-3-yl 3-deoxy-3-[4-(2-hydroxythiazol-4-yl)-1H-1,2,3-triazol-1-yl]-1-thio-α-D-galactopyranoside] |  | 0.028 µM | 2.8 µM |  | 
13 | OC[C@H]1O[C@H](Sc2cc(Br)c(F)c(Br)c2)[C@H](O)[C@@H](n2cc(-c3csc(O)n3)nn2)[C@H]1O [Example 21, 3,5-dibromo-4-fluorophenyl 3-deoxy-3-[4-(2-hydroxythiazol-4-yl)-1H-1,2,3-triazol-1-yl]-1-thio-α-D-galactopyranoside] |  | 0.05 µM | 4.6 µM |  | 
14 | CN(C)C(=O)c1ncc(Cl)cc1S[C@H]1OC(CO)[C@H](O)[C@H](n2cc(-c3csc(O)n3)nn2)C1O (stereo partly drawn) [Example 33, 5-Chloro-N,N′-dimethyl-picolinamide-3-yl 3-deoxy-3-[4-(2-hydroxythiazol-4-yl)-1H-1,2,3-triazol-1-yl]-1-thio-α-D-galactopyranoside] |  | 0.054 µM | 1.7 µM |  | 
15 | N#Cc1ncc(Br)cc1S[C@H]1O[C@H](CO)[C@H](O)[C@H](n2cc(-c3nc(Cl)cs3)nn2)[C@H]1O [Example 4, 5-Bromo-2-cyano-pyridine-3-yl 3-[4-(4-chlorothiazol-2-yl)-1H-1,2,3-triazol-1-yl]-3-deoxy-1-thio-α-D-galactopyranoside] |  | 0.085 µM | 0.2 µM |  | 
16 | CN(C)C(=O)c1ccc(Cl)cc1S[C@H]1OC(CO)[C@H](O)[C@H](n2cc(-c3csc(O)n3)nn2)C1O (stereo partly drawn) [Example 32, 4-Chloro-N,N′-dimethylbenzamide-2-yl 3-deoxy-3-[4-(2-hydroxythiazol-4-yl)-1H-1,2,3-triazol-1-yl]-1-thio-α-D-galactopyranoside] |  | 0.044 µM | 2.1 µM |  | 
17 | OC[C@H]1O[C@H](Sc2cc(Cl)c(Cl)cc2F)[C@H](O)[C@@H](n2cc(-c3csc(O)n3)nn2)[C@H]1O [Example 31, 3,4-Dichloro-6-fluoro-phenyl 3-deoxy-3-[4-(2-hydroxythiazol-4-yl)-1H-1,2,3-triazol-1-yl]-1-thio-α-D-galactopyranoside] |  | 0.013 µM | 4.6 µM |  | 
